Data on four compounds can be found in paper PMC6272548, “Synthesis and Antiplatelet Activity of Antithrombotic Thiourea Compounds: Biological and Structure-Activity Relationship Studies” (Molecules, 2015).

One data set has as its system COX-1. Also noted: method as in PMID 22263894. The following applies: read-out: IC50 of non-anionic COX-1 inhibitors; cited from earlier work.
The test system of another data set is PGE2 production. Nature of the data set: Measurement of plasma PGE2 levels by EIA in platelet-rich plasma. The following applies: human platelet-rich plasma. Format: cell-based. The procedure:
The stable direct metabolite of PGE2, 13,14-dihydro-15-keto-Prostaglandin E2, is a known marker of the COX-1 activity. By the measurement of total levels of this PGE2 metabolite in human platelet-rich plasma, we evaluated the feasibility of antiplatelet N,N'-disubstituted thioureas to inhibit COX-1 activity in healthy platelets (Table 2).
Plasma samples containing 100 μM of each thiourea with antiplatelet activity were used to determine the concentrations of […], an index of in vitro COX-1 activity. Briefly, ozagrel (3 μL, 100 μM) were added to stop TXS activity and the aggregation were triggered with 10 μL of arachidonic acid (500 μM) in PRP samples containing each active derivative (100 μM) under stir conditions. After five minutes the suspensions were mixed with indomethacin (3 μL, 10 mM) stop-solution. By sonication for 1 min, platelets were disrupted and purification step were performed according to the manufacturer’s instructions (Cayman Chemical Co.). Plasma levels of PGE2 were measured in duplicate by competitive immunoassay using commercially available kits for EIA (PGE2 EIA Kit, Cayman Chemical Co.) according to the manufacturer’s instructions. A threshold of 25.75 ng/mL was defined as control plasma levels of PGE2 after platelet disrupture.

Another data set relates to TXB2 production. Nature of the data set: Measurement of plasma TXB2 levels by EIA in platelet-rich plasma. Conditions: for inhibition at 100 µM: Homo sapiens, Platelet. Format: cell-based. As to the method:
Thromboxane B2 (TXB2), a stable TXA2 metabolite, is widely used as a prognostic risk marker of platelet activation in cardiovascular disease, which is closely related to COX-1 and Thromboxane Synthetase activity. Thus, the plasma levels of this metabolite were measured using an enzyme immunoassay (EIA) as described in the Experimental Section.
Plasma samples containing 100 μM of each thiourea with antiplatelet activity were used to determine the concentrations of thromboxane B2, an index of in vitro COX-1 activity. Briefly, 10 μL of arachidonic acid (500 μM) were added to platelet-rich plasma samples containing each active derivative (100 μM) under stir conditions. After five minutes the suspensions were mixed with 3 μL Indomethacin (10 mM) stop-solution. By sonication for 15 min, platelets were disrupted, and the resulting homogenates were centrifuged at 2000 g for 10 min to allow complete release of TXB2. Plasma levels of TXB2 were measured in duplicate by competitive immunoassay using commercially available kits from EIA Cayman (TXB2 EIA Kit, Cayman Chemical Co, Ann Arbor, MI, USA) according to the manufacturer’s instructions. A threshold of 25.75 ng/mL was defined as control plasma levels of TXB2 after platelet disrupture.

A further data set deals with Salmonella typhimurium. Nature of the data set: Reverse mutagenesis to histidine prototrophy (Ames test), spot test. The following applies: without metabolic activation; 10 µM, 100 µM and 500 µM. As to the method: This assay was performed as described by Maron and Ames, using the histidine Salmonella typhimurium auxotroph mutant strains TA97, TA98, TA100 and the […] TA102 (Table 5).
A general note: The Ames test uses bacterial strains that need an amino acid and regain growth without it when mutated back.

In another data set the test system is Escherichia coli. In words: SOS chromotest, spot test. It is filed as cell-based. As to the method: The SOS chromotest (spot test) was performed according to Quillardet and Hofnung, using Escherichia coli (Table 6) strains PQ35 and PQ37. One hundred microliters of an overnight culture of the E. coli strains are diluted in 5 mL of LB medium and the culture is incubated at 37 °C in a gyratory incubator up to a concentration of 2 × 10^8 bacteria/mL. Fractions of 0.1 mL of the culture are then distributed into test tube with top agar, and the mixture is poured immediately on M63 medium plate. A sample of 10 µL of the thiourea derivatives is spotted onto the center of the plate. After overnight incubation at 37 °C, the presence of a blue ring around a zone of inhibition indicates genotoxic activity.

A short description of data set [1]: Hemolysis assay (erythrocyte lysis). Format: cell-based, human. The following applies: human, erythrocyte suspension, pH 7.4; 3 h incubation; derivatives and ASA at 100 μM, TRITON at 1%. As to the method: (§1) Healthy erythrocytes were washed three times with PBS (pH 7.4) by centrifugation and suspended in the same buffer. All derivatives were incubated with the erythrocyte suspension for 3 h at 37 °C. The release of hemoglobin was determined by monitoring the optical density of the supernatant at 540 nm. The experiments were performed in triplicate and complete hemolysis (positive control) was determined using 1% Triton X-100. Hemolysis less than 10% indicated good hemocompatibility and non-toxicity of the molecules tested.

For a further data set, the system named is erythrocytes. Nature of the data set: Hemolysis assay (erythrocyte lysis). It is filed as cell-based, human. The following applies: 3 h incubation; derivatives and ASA at 100 μM, TRITON at 1%. As to the method:
as §1

For the next data set, the system named is human platelets. Nature of the data set: Platelet aggregation of human citrated platelet-rich plasma induced by arachidonic acid (turbidimetric). It is filed as cell-based. The procedure: The human blood samples were obtained from adult volunteers, who abstained from the use of drugs or other substances that could interfere with the experiment for at least 15 days prior. […] The platelet rich (PRP) and poor (PPP) plasma were prepared by differential centrifugation and platelet aggregation was monitored using the turbidimetric method described by Born and Cross with an aggregometer 4-Pack® (Helena Laboratories, Beaumount, TX, USA). Different concentrations of the synthetic derivatives and the vehicle (DMSO 1%) were pre-incubated for 2 min before addition of the agonists (500 μM arachidonic acid and 5 μg/mL collagen). The platelet aggregation tests were performed in triplicate and the data were statistically analyzed.

Read-outs that look alike come from different tables or passages of the source.

The term inhibition denotes the relative decrease from the control value, in per cent. The term melting point denotes the temperature, or range, at which the solid turns liquid.

Regarding `Nc1ccc(NC(=O)c2ccc(C(F)(F)F)cc2)nc1` [TFAP], in the data set with COX-1, the IC50 was 0.8 µM.
For the compound `CC(=O)Oc1ccccc1C(=O)O` [Aspirin, acetylsalicylic acid, reference compound], in the data set on PGE2 production, the inhibition at 100 µM is 47.5 ± 1.4%. Moreover, the inhibition at 100 µM with TXB2 production was determined as 78.5 ± 5%. In the data set with Salmonella typhimurium, the “Ames Test S. typhimurium TA97” value is reported as “-”, the “Ames Test S. typhimurium TA98” value is “-”, the “Ames Test S. typhimurium TA100” value is given as “-” and the “Ames Test S. typhimurium TA102” value is reported as “-”. Further, in the data set on Escherichia coli, the “SOS Chromotest E. coli PQ35” value is “-”. This compound yielded a hemolysis at 3 h, 100 µM in data set [1] of 2%.
For the compound Triton X-100, the Hemolysis in the data set with erythrocytes turned out to be 100%.
Take `S=C(NCCc1ccccc1)Nc1ccc2c(c1)OCO2` [3p, N-(3,4-Methylenedioxyphenyl)-N'-(2-phenethyl)thiourea]: the melting point fell in the range of 126 to 128 °C. Moreover, in the data set with human platelets (Homo sapiens, Platelet, read-out: IC50, concentration that caused 50% inhibition of platelet aggregation, arachidonic acid-induced (500 μM), human platelet-rich plasma), the IC50 was found to be 84.6 µM. Moreover, the inhibition at 100 µM in the data set on human platelets (Platelet, 100 μM, healthy human platelets, read-out: Inhibition of AA-induced platelet aggregation) lay in the range of 96 to 98%. Further, the IC50 with human platelets (read-out: IC50, concentration that caused 50% inhibition of platelet aggregation, arachidonic acid-induced (500 μM), human platelet-rich plasma) stood at 84.5 µM. Besides, the inhibition at 100 µM in the data set with PGE2 production came out at 7.9 ± 7.9%. The “Platelet Inhibition of TXB2 (%)” value with TXB2 production (100 µM, human platelet-rich plasma) came to 88.1 ± 5.5%. Further, the inhibition at 100 µM with TXB2 production amounted to 88%. Besides, in the data set with Salmonella typhimurium, the “Ames Test S. typhimurium TA97” value is “-”, the “Ames Test S. typhimurium TA98” value is on record as “-”, the “Ames Test S. typhimurium TA100” value was “-” and the “Ames Test S. typhimurium TA102” value was “-”.
